ChEMBL document CHEMBL5113553, “Synthesis and Bioactivity of Thiocarboxylic A and Derivatives” (J Nat Prod, 2022)
pIC50: −log10 of the molar value. In brackets after ≈: the same amount, converted by molar mass.

How the values were obtained:
Staphylococcus aureus = test: Antibacterial activity against wild type Staphylococcus aureus USA300 incubated for 24 hrs; format: functional
Candida albicans = test: Antifungal activity against Candida albicans assessed as fungal growth inhibition; format: functional
Escherichia coli [1] = test: Antibacterial activity against Escherichia coli harboring delta tolC mutant assessed as inhibition of bacterial growth incubated for 24 hrs; format: functional, organism-based
Escherichia coli [2] = test: Antibacterial activity against wild type Escherichia coli incubated for 24 hrs; format: functional
L929 = test: Cytotoxicity against mouse L929 cells upto 100 uM measured after 72 hrs by alamar blue assay; format: toxicity, cell-based; conditions: l929, 72 h

| SMILES | MIC (Staphylococcus aureus) | MIC (Candida albicans) [µg/mL] | pIC50 (Escherichia coli [1]) | MIC (Escherichia coli [2]) | Activity (L929) |
| --- | --- | --- | --- | --- | --- |
| CC/C=C/C=C/[C@@]1(C)OC(c2ccsc2C)=C(C(=O)OC)C1=O | 1.7 µg/mL | 1.7 (≈ 5.11 µM) | 4.36 | 1.7 µg/mL | Non-Toxic |
| CCCC/C=C/C=C/[C@@]1(C)OC(c2ccsc2C)=C(C(=O)OC)C1=O | > 100 µM |  |  | > 100 µM | Non-Toxic |
| CC/C=C/C=C/[C@@]1(C)OC(c2ccc(C)s2)=C(C(=O)OC)C1=O | > 100 µM |  |  | > 100 µM | Non-Toxic |
| CC/C=C/C=C/[C@@]1(C)OC(c2sccc2C)=C(C(=O)OC)C1=O | > 100 µM |  |  | > 100 µM | Non-Toxic |
